This note sets out measurements from US20170042196A1, “USE OF UMAMI COMPOUNDS TO ENHANCE SALTINESS” (Senomyx, Inc., priority 2015, published 2017).

What all share (assay type): in vivo
The test system of experiment [1] is trained panelists (saltiness perception). The experiment is described as follows: 2-Alternative Forced Choice human taste test, saltiness in low sodium chicken broth. As to conditions: for Sample selected as saltier by panelists (Total): 55° C.; for saltiness of test sample versus control sample: p<0.1. On the procedure:
Samples of low sodium chicken broth were prepared and compared using human taste tests. Control samples contained low sodium chicken broth alone. Test samples contained the same low sodium chicken broth to which a specific umami compound was added at a specified concentration. To prepare the test sample, a concentrated stock solution of an umami compound was prepared in ethanol. […] To create the control sample, the chicken broth was balanced with 0.1% ethanol. All samples were served at 55° C. Trained panelists were used to complete the test with three replicates (subject number reported in each table). A 2-Alternative Forced Choice test was used, where panelists received two three-digit blind-coded samples, one control and one test sample, in randomized, counter-balanced order. Panelists tasted samples, rinsing with water between samples, and indicated which of the two samples was […]. The results were analyzed using a binomial distribution with alpha=0.1.

For experiment [2] the test system is unchanged. As to the kind of experiment: 2-Alternative Forced Choice human taste test, saltiness in chicken broth (low sodium broth + 100 mM NaCl). As to conditions: for Sample selected as saltier by panelists (Total): 0.1% ethanol, 55° C.; for saltiness of test sample versus control sample: p<0.1. The protocol:
Samples of chicken broth were prepared and compared using human taste tests. Control samples contained chicken broth alone. Test samples contained the same chicken broth to which a specific umami compound was added at a specified concentration. To prepare the test sample, a concentrated stock solution of an umami compound was prepared in ethanol. The stock solution was added to a commercially available no-MSG added, low sodium chicken broth (Pacific Organic Free Range Chicken Broth Low Sodium), to which 100 mM NaCl was also added, resulting in a final concentration of the umami compound in the test sample with 0.1% ethanol. To create the control sample, 100 mM NaCl was added to the low sodium chicken broth, and it was balanced with 0.1% ethanol. All samples were served at 55° C. A 2-Alternative Forced Choice test was used, where panelists received two three-digit blind-coded samples, one control and one test sample, in randomized, counter-balanced order. Panelists tasted samples, rinsing with water between samples, and indicated which of the two samples was […]. The results were analyzed using a binomial distribution with alpha=0.1.

Experiment [3] has the same test system. The experiment is described as follows: Difference from Reference scaling human taste test, saltiness in low sodium chicken broth. The protocol:
Samples of low sodium chicken broth were prepared and compared using human taste tests. The reference samples contained low sodium chicken broth alone. The test samples contained the same low sodium chicken broth to which a specific umami compound was added. To prepare the test samples, a concentrated stock solution of an umami compound was prepared in ethanol. The stock solution was added to a commercially available no-MSG added, low sodium chicken broth (Pacific Organic Free Range Chicken Broth Low Sodium), resulting in a final concentration of the umami compound in the test sample with 0.1% ethanol. To create the reference sample, the low sodium chicken broth was balanced with 0.1% ethanol. All samples were served at 55° C. Trained panelists were used to complete the test with two replicates (subject number reported in each table). A Difference from Reference scaling test was used. Panelists received pairs of samples, consisting of the reference sample and a three-digit blind coded sample, which was either the reference sample again (i.e., a negative control), or the test sample containing the compound of interest. Panelists first tasted the reference sample, then rinsed with water and tasted the blind-coded sample. Panelists were asked to score the test sample for differences in saltiness as compared to the reference sample. […] The test also included measurement of other attributes rated on separate scales (e.g., umami intensity, bitterness, and chicken flavor) to ensure responses for saltiness focused solely on that attribute. The order in which panelists received sample pairs containing either the reference or the test sample as the three-digit blind coded sample was randomized and counterbalanced. The results were analyzed using a two-tailed Student's t-test, with alpha=0.1.

For the compound `CCCC(CCC)NC(=O)c1ccc2c(c1)OCO2` [Formula (1a)], the “Sample selected as saltier by panelists (Total)” value (shortened to “Sample selected as saltier”) in experiment [1] (2 ppm in low sodium chicken broth, 0.05% ethanol, n = 48 (16 panelists × 3 replicates)) amounted to 35; in experiment [2] (2 ppm in chicken broth (100 mM NaCl added), n = 48 (16 panelists × 3 replicates)) it was 31. The “saltiness of test sample versus control sample” value in experiment [1] (2 ppm in low sodium chicken broth) and in experiment [2] (2 ppm in chicken broth (100 mM NaCl added)) was “significantly saltier” in each case.

Regarding `COc1cccc(-c2n[nH]c(SCc3ccccn3)n2)c1OC` [Formula (1b)], in experiment [3] (5 ppm in low sodium chicken broth, 11-point scale −5 to +5, n = 24 (12 panelists × 2 replicates)), the “Average Saltiness Score of Test Sample as compared to Reference Sample” value amounted to 0.7. Moreover, the “saltiness of test sample versus reference sample” value in experiment [3] (5 ppm in low sodium chicken broth, p<0.1) was “significantly saltier”. For the same compound, the “Sample selected as saltier” value in experiment [1] (5 ppm in low sodium chicken broth, 0.1% ethanol, n = 48 (16 panelists × 3 replicates)) turned out to be 33. Further, the “saltiness of test sample versus control sample” value in experiment [1] (5 ppm in low sodium chicken broth) is “significantly saltier”.

For the compound `COc1cc(C)ccc1CNC(=O)C(=O)NCCc1ccccn1` [Formula (1c)], the “Sample selected as saltier” value in experiment [1] (1 ppm in low sodium chicken broth, 0.1% ethanol, n = 48 (16 panelists × 3 replicates)) is 36; in experiment [2] (1 ppm in chicken broth (100 mM NaCl added), n = 51 (17 panelists × 3 replicates)) it was 33. The “saltiness of test sample versus control sample” value in experiment [1] (1 ppm in low sodium chicken broth) and in experiment [2] (1 ppm in chicken broth (100 mM NaCl added)) was “significantly saltier” in each case.

On to `COc1cccc(CNC(=O)C(=O)NCCc2ccccn2)c1OC` [Formula (1d)], for which the “Average Saltiness Score of Test Sample as compared to Reference Sample” value in experiment [3] (8 ppm in low sodium chicken broth, 11-point scale −5 to +5, n = 30 (15 panelists × 2 replicates)) came to 0.8. The “saltiness of test sample versus reference sample” value in experiment [3] (8 ppm in low sodium chicken broth, p<0.1) is “significantly saltier”. Besides, the “Sample selected as saltier” value in experiment [1] (8 ppm in low sodium chicken broth, 0.1% ethanol, n = 51 (17 panelists × 3 replicates)) came to 37; in experiment [2] (8 ppm in chicken broth (100 mM NaCl added), n = 48 (16 panelists × 3 replicates)) it was 31. The “saltiness of test sample versus control sample” value in experiment [1] (8 ppm in low sodium chicken broth) and in experiment [2] (8 ppm in chicken broth (100 mM NaCl added)) was “significantly saltier” each time.

On to `COC[C@@H](CC(C)C)NC(=O)c1ccc(C)c(C)c1` [Formula (1e)], for which the “Average Saltiness Score of Test Sample as compared to Reference Sample” value in experiment [3] (2 ppm in low sodium chicken broth, 11-point scale −5 to +5, n = 30 (15 panelists × 2 replicates)) came out at 0.5. Besides, the “saltiness of test sample versus reference sample” value in experiment [3] (2 ppm in low sodium chicken broth, p<0.1) is on record as “significantly saltier”. For the same compound, the “Sample selected as saltier” value in experiment [1] (2 ppm in low sodium chicken broth, 0.1% ethanol, n = 51 (17 panelists × 3 replicates)) was determined as 32. In addition, the “saltiness of test sample versus control sample” value in experiment [1] (2 ppm in low sodium chicken broth, 0.1% ethanol) is recorded as “significantly saltier”.

Consider `COc1cc(C)ccc1CNC(=O)C(=O)NCCc1ccc(C)cn1` [Formula (1f)], for which the “Average Saltiness Score of Test Sample as compared to Reference Sample” value in experiment [3] (1 ppm in low sodium chicken broth, 11-point scale −5 to +5, n = 26 (13 panelists × 2 replicates)) was determined as 1.0. The “saltiness of test sample versus reference sample” value in experiment [3] (1 ppm in low sodium chicken broth, n = 26, p<0.1) is given as “significantly saltier”. Further, the “Sample selected as saltier” value in experiment [2] (2 ppm Formula (1f) in chicken broth (100 mM NaCl added), n = 48 (16 panelists × 3 replicates)) was 32. Further, in experiment [2] (2 ppm Formula (1f) in chicken broth (100 mM NaCl added)), the “saltiness of test sample versus control sample” value is reported as “significantly saltier”.

In the case of `COc1ccc(CNC(=O)C(=O)NCCc2ccccn2)c(OC)c1` [Formula (1g)], the “Average Saltiness Score of Test Sample as compared to Reference Sample” value in experiment [3] (1 ppm in low sodium chicken broth, 11-point scale −5 to +5, n = 30 (15 panelists × 2 replicates)) is 0.5. The “saltiness of test sample versus reference sample” value in experiment [3] (1 ppm in low sodium chicken broth, n = 30, p<0.1) was “significantly saltier”.
